In publication PMC11571215, “Optimization of Antiproliferative Properties of Triimine Copper(II) Complexes” (Journal of Medicinal Chemistry, 2024):

How the values were obtained:
HCT116-DoxR cells [1] = assay: Mitochondrial membrane potential (JC-1, flow cytometry); type: cell-based, human; details: 48 h; complexes at IC50, Dox 6 μM, Cis 5 μM; normalized to DMSO
From the text: Changes in membrane potential can be measured and represent an essential parameter, indicating the functional state of the mitochondria. For this analysis, the lipophilic cationic probe 5,5′,6,6′-tetrachloro-1,1′,3,3′-tetraethylbenzimidazolylcarbocyanine iodide (JC-1) was used, allowing the evaluation of depolarization or hyperpolarization of the mitochondrial membrane.[72] In healthy cells, JC-1 accumulates inside the electronegative mitochondria as aggregates (red fluorescence) when the membrane potential is positively charged (hyperpolarized).[71] However, when depolarization of the mitochondrial membrane potential occurs, the JC-1 probe will accumulate outside of the mitochondria in its monomeric form (green fluorescence), therefore causing a decrease in the ratio of JC-1 aggregate/monomer fluorescence intensity.[61],[71] […] Subsequently, the cells were stained with the JC-1 probe and subjected to flow cytometry analysis to confirm potential alterations in the mitochondrial membrane potential induced by the complexes. […]
The mitochondrial membrane potential (ΔΨM) was evaluated by using the JC-1 Mitochondrial Membrane Potential Assay Kit (Abnova Corporation, Walnut, California, USA). […] The samples were then analyzed in the Attune Acoustic Focusing Flow Cytometer (Life Technologies, Carlsbad, CA, USA) and results were processed with Attune Cytometric software.

HCT116-DoxR cells [2] = assay: Cellular senescence (beta-galactosidase, flow cytometry); type: cell-based, human; details: 48 h at IC50, vs 0.1% DMSO
Procedure: The percentage of senescent cells was assessed using the Senescence Assay Kit (Abcam), enabling the quantification of beta-galactosidase activity through flow cytometry. […] A 0.1% (v/v) DMSO solution served as vehicle control, and Dox and Cis were used as positive controls.
In this assay, a senescence assay kit (Beta Galactosidase, Fluorescence) (ab228562; Abcam, UK) was used. HCT116-DoxR cells were seeded in 24-well plates at a density of 5 × 10^5 cells/well and incubated for 24 h, at the conditions mentioned before. […] Additionally, 0.1% (v/v) DMSO was used as a vehicle control, and 6 μM Dox and 5 μM Cis were used as positive controls. At the end of the incubation period, the medium was removed, and 500 μL of DMEM with 1.5 μL of Senescence dye was added to each well. The plates were incubated for an additional 1–2 h at 37 °C. Subsequently, the well contents were removed, and the cells were washed twice with Wash Buffer (provided by the kit). The cells were trypsinized with TrypLE Express and then centrifuged for 5 min at 500 × g. After centrifugation, the cells were washed with the wash buffer, centrifuged, and resuspended again in 500 μL of Wash Buffer. The samples were subsequently analyzed by an Attune acoustic focusing flow cytometer (Life Technologies, Carlsbad, USA), and the results were analyzed by the respective software (Attune Cytometric software).

[3] = tested on: chicken embryo chorioallantoic membrane; assay: Ex-ovo CAM assay: in vivo toxicity and angiogenic potential; details: IC50 concentrations; for angiogenic potential (tertiary veins): 24 h, normalized to DMSO; for in vivo toxicity (embryo death): chicken embryo
From the text: The ex-ovo Chorioallantoic Membrane (CAM) assay has become a preclinical model of choice for assessing the cytotoxicity of Cu(II) complexes and in vivo angiogenesis.[38] The CAM is an extraembryonic membrane formed by mesodermal layers, highly vascularized despite being compromised, making it ideal for studying angiogenesis and antiangiogenesis in response to biomolecules and drugs.[97] […] In these assays, highly vascularized regions surrounded by O-rings on the chorioallantoic membrane of chicken embryos were studied. […] Eight embryos were used as biological replicates. Images were taken immediately after exposure to the complexes and control (0 h) and 24 h later. The values were normalized to the number of tertiary veins after exposure to the DMSO control and are represented in Figures 19 and S25.
To assess the angiogenic potential of the copper complexes, an ex-ovo CAM (chick chorioallantoic membrane) in vivo model using chicken eggs was performed. Fertilized eggs were opened, and the embryos and blood vessels were stabilized for 24 h in an incubator at 37 °C in perforated individual weighing boxes. After incubation, 4 silicone O-rings were placed on areas with a high number of blood vessels. […] The area limited by each O-ring was photographed immediately after the addition of the complexes and after 24 and 48 h of incubation at 37 °C. The images were captured with a digital USB microscope camera (Opti-Tekscope OT-V1). Image analysis was performed using ImageJ software.

[4] = Stability/solubility in RPMI culture medium by UV-vis; type: physicochemical; details: 50 μM, without phenol red and FBS, 0 to 3 h, 37 °C
Procedure: The complexes (powder form) were first dissolved in 100% (v/v) DMSO and subsequently in RPMI culture medium without phenol red and fetal bovine serum (FBS), at a final concentration of 50 μM. Absorption spectra were recorded in the wavelength range of 220–800 nm. As previously, high-energy absorption bands corresponding to π → π* and n → π* transitions with peaks between 230 and 380 nm ranges were observed, which may correspond to the aromatic rings of terpyridine.[24],[38]
Copper complex stability in a biological medium was analyzed through UV–vis spectroscopy spanning a range from 220 to 800 nm. Complexes were dissolved in 100% (v/v) DMSO and subsequently diluted with RPMI medium (without phenol red) to achieve a final concentration of 50 μM. The measurements were conducted in a quartz cuvette with a 1 cm path length. Spectral analyses were obtained after 0, 3, 6, 24, and 48 h on the Evolution 300 UV–vis spectrophotometer (Thermo Fisher Scientific in Waltham, MA, USA).

HCT116-DoxR 3D spheroids = assay: CellTox Green cytotoxicity assay in 3D spheroids; type: cell-based, human; details: 4.8 μM Cu1a or 5.8 μM Cu1b; 3, 24, 48, 72 h
Procedure: Moreover, over time a detachment of death cells from the spheroids is observed (with green cells in the periphery of the outer region of the spheroids more clearly visualized at 72 h of exposure; Figure 5B and Supplementary Figure S16B,C).
HCT116-DoxR cells were seeded at 5 × 10^4 cells/mL in super low Attachment 96-well plates (NunclonSphera U-Shaped-Bottom Microplate, Thermo Fisher Scientific, Waltham, MA, USA) and incubated at 37 °C in a humidified atmosphere with 5% (v/v) CO2, to allow spheroids formation and growth.[60],[105] To perform the cell viability study, two methods were used: the MTS assay and the CellTox assay.
For the CellTox assay, HCT116DoxR spheroids grown for 6 to 9 days were used. […] CellTox Green dye is an asymmetric cyanine dye that enters cells with compromised membrane integrity and binds to DNA, which enhances its fluorescence. […] Therefore, higher levels of fluorescence are associated with a higher number of death cells.[106] […] After 3, 24, 48, and 72 h of incubation, fluorescence images were acquired with Ti–U Eclipse inverted microscope (Nikon), with a FITC filter (excitation at 465–495 nm, in the blue region, and emission at 515–555 nm, in the green region).
The software ImageJ was used for fluorescence quantification in which the Corrected Total Cell Fluorescence (CTCF, eq 6) was determined. […]

SMILES	JC-1 red/green fluorescence ratio (aggregate/monomer) (HCT116-DoxR cells [1])	senescent cells (HCT116-DoxR cells [2])	angiogenic potential (tertiary veins) [3]	in vivo toxicity (embryo death) [3]	solubility/stability in RPMI culture medium [4]	cell death in spheroids (CellTox Green fluorescence) (HCT116-DoxR 3D spheroids)
[Cl][Cu-3]12([Cl])[n+]3ccccc3-c3cc(-c4cccc5ccccc45)cc([n+]31)-c1cccc[n+]12 [Cu1a]	approximately 0.79	increase in the percentage of senescent cells	did not show significant pro- or antiangiogenic properties	do not show in vivo toxicity in a chicken embryo	maintenance of solubility	the increase of cell death
[Cl][Cu-3]12([Cl])[n+]3ccccc3-c3cc(-c4ccc5ccccc5c4)cc([n+]31)-c1cccc[n+]12 [Cu1b]	0.88	highest quantity of cells in senescence	did not show significant pro- or antiangiogenic properties	do not show in vivo toxicity in a chicken embryo	a slight reduction of its solubility from 0 to 3 h	the increase of cell death
